Data set [1] relates to Propionibacterium acnes (ATCC 11827). Kind of data set: Antibacterial bioassay, MIC by broth microdilution (INT colour change). The following applies: Cutibacterium acnes, ATCC11827, 72 h, read-out: Antibacterial MIC.
Method: Briefly, the bacteria was cultured from a Kwik-Stick on nutrient agar and incubated at 37°C for 72 h under anaerobic conditions before the assay. The 72 h culture of the bacteria was dissolved in nutrient broth and the suspension was adjusted to 0.5 McFarland standard turbidity. […] In a sterile 96-well plate, 100 µl of samples from the stock solution consisting of the plant extract/ isolated compounds (2 mg/ml in 10% dimethyl sulphoxide (DMSO)) and the positive control tetracycline (0.2 mg/ml) was diluted with broth. […] The bacterial suspension (100 µl) was added to the wells. […] The plates were incubated at 37°C for 72 h in an anaerobic environment.
Data set [2] can be described thus: DPPH antioxidant (radical scavenging) assay. As to conditions: for Antioxidant IC50 / pIC50: DPPH; for Antioxidant IC50: 550 nm, samples 100 to 0.7 µg/ml; for pIC50: value in brackets. It counts as biochemical. The procedure:
Following the procedures as described by DuToit et al. (2001) for each sample, a dilution series (8 dilutions) was prepared in a 96 well plate by adding distilled water as a dilution medium. […] Each concentration was tested in triplicates. Vitamin C was used as a positive control. The radical scavenging capacities of the samples were determined using a BIOTEK plate reader to measure the disappearance of DPPH at 550 nm. The radical scavenging activity was measured in terms of the amount of antioxidants necessary to decrease the initial DPPH absorbance by 50% (IC50). The IC50 value of each sample was determined graphically by plotting the absorbance of DPPH as a function of the sample concentration in μg/ml. The IC50 is the amount of antioxidant necessary to decrease the initial DPPH absorbance by 50%. The results were calculated using the following equation: AA% = {Absblank(Abssample-Abscontrol)/Absblank} × 100 [formula] The mg vitamin C equivalents/g dry weight of potent samples was calculated as follows: […]) = (IC50(vitc)/IC50(sample)) × 1000. [formula]

A short description of data set [3]: In vitro cytotoxicity assay (XTT). As to conditions: mouse; for CC50: b16-f10 cells.
Method: (§1) The mouse melanocytes (B16-F10) cells were cultured in a complete Minimum Essential Eagle's Medium (MEM) whereas the human U937 cells were cultured in Roswell Park Memorial Institute (RPMI) containing 10% fetal bovine serum (FBS) and 1% gentamycin. B16-F10 (10^5 cells per well) and U937 (10^6 cells per well) were seeded into a 96-well plate. […] The plate was then incubated at 37°C in 5% CO2, and a humidified atmosphere after which the toxicity effects of the extracts was assayed using the XTT (sodium 3'-[1-(phenyl amino-carbonyl)-3,4-tetrazolium]-bis-[4-methoxy-6-nitrobenzene sulfonic acid hydrate) cytotoxicity assay. […] By referring to the control (medium with DMSO), the cell survival rate was assessed.
The conditions of data set [4]: constituent of Viburnum jucundum (Rios et al., 2001); cited from earlier work.
Data set [5] can be described thus: In vitro cytotoxicity assay (XTT). As to conditions: human; for CC50: u937 cells. (Tetrazolium dyes change colour on reduction, which living cells bring about.)
Method: as §1
In data set [6] the test system is skin cancer cells (SL-MEL-2). The following applies: Sung et al., 1999; cited from earlier work.
Data set [7] concerns colorectal cancer cells (HCT15). As to conditions: Sung et al., 1999; cited from earlier work.
The test system of another data set is CNS cancer cells (XF498). The following applies: Sung et al., 1999; cited from earlier work.
The test system of another data set is MAC tumour cells. The following applies: Woldemariam et al. (1992); cited from earlier work.
The test system of a further data set is U937 human macrophage. Kind of data set: In vitro cytotoxicity assay (XTT). The following applies: XTT.
A further data set has as its system P. acnes. Nature of the data set: Transmission electron microscopy (TEM) of treated bacteria. The following applies: 50 µg/ml, 72 h.
The test system of a further data set is IL-8. Kind of data set: Cytokine production (ELISA) in U937 cells co-cultured with heat-killed P. acnes. It counts as cell-based, human. The following applies: U937 cells infected with P. acnes (Fig 3b). (ELISA stands for enzyme-linked immunosorbent assay.)
For another data set, the system named is TNF a. The description is as above. The following applies: 100 and 50 µg/ml, U937 cells infected with P. acnes (Fig 3b). The data set is classed as cell-based, human. The protocol:
The effect of plant extract on cytokine production (IL 8 and TNF a) was evaluated using enzyme immunoassay kits (ELIZA) using method as described previously (Tsai et al., 2010). Briefly, the log phase culture of P.acnes was harvested, washed three times with phosphate buffer saline (PBS), and incubated at 80°C for 30 min to kill the bacteria. The heat-killed bacteria were stored at 4°C until use. The human U937 cells were seeded at 10^6 cells per well in a 24-well plate and was stimulated with heat killed P. acnes (wet weight 100 µg/ml) alone and in combination with the different test samples. Pentoxifylline was used as a control. After 18 h incubation, the cell-free supernatants were collected and the concentrations of IL 8 and TNF a were analysed. Cytokine standards were serially diluted to facilitate the construction of calibration curves necessary for determining protein concentration of test samples.

Molecules are shown by their SMILES. pIC50: −log10 of the molar value. Values after ≈ are worked out from the molar mass of the structure shown. Values joined by “and” are separate entries in the source; they are usually repeats but may differ in a detail not shown here. Equal entries are not always repeated. *1 amine or outer side, *2 acyl side, *3 side chain or, on linkers, in order; H or OH if unused. Where a SMILES comes first, the peptide text is derived from it. Bridges are numbered along the chain shown (N, C = ends). Roman numbers before positions name the chains, in order. [ ]: non-standard residue; d: D form. Actinocin(9to1) = Cc1c2oc3c(C)ccc(C(=O)[*:1])c3nc-2c(C(=O)[*:2])c(N)c1=O; NMeV = CN[C@H](C(=O)O)C(C)C; Sar = CNCC(=O)O

By MIC is commonly meant the smallest concentration in the dilution series that meets the test's criterion for growth inhibition. In general, EC50 refers to the midpoint of the concentration-response curve. Read a high EC50 as a less potent agent. A word on the viability: it is the share of living cells, or the viability signal relative to a control. Lower therefore signals more harm to the cells. As usually defined, the CC50 is the concentration that lowers cell viability or growth by half. Broadly, the pIC50 is the negative decadic logarithm of the IC50, by convention in mol/L.

Method for U937 human macrophage: as §1

In the case of `CC(=O)OC/C=C(\C)CCC[C@H](C)CCC[C@H](C)CCCC(C)C` [Compound C1, phytol acetate], the MIC in [1] was over 500 µg/mL. Also, the “Antioxidant IC50” value in data set [2] was over 100 µg/mL.

In the case of `CCCCCCCCCCCCCCCCCCCCCCCCCCCCCCO` [Compound C2, triacontanol], in [3], the EC50 was over 100 µg/mL and the viability at 100 µg/ml is 100%. Besides, the toxicity result in data set [4] was “non toxic”. Also, in data set [5], the EC50 was over 100 µg/mL and the viability at 100 µg/ml was 100%. The MIC in [1] was over 500 µg/mL. The “Antioxidant IC50” value in data set [2] is over 100 µg/mL.

Consider `C/C(=C\CO)CCC[C@H](C)CCC[C@H](C)CCCC(C)C` [Compound C3, phytol], for which the EC50 in data set [3] and in [5] was over 100 µg/mL each time. Besides, the viability at 100 µg/ml in data set [3] and in data set [5] was 100% in each case. Also, the “toxicity against skin cancer cells (SL-MEL-2)” value in [6] is listed as “mild toxicity”. Also, in [7], the “toxicity against colorectal cancer cells (HCT15)” value is “mild toxicity”. Moreover, the MIC in [1] is over 500 µg/mL. For the same compound, the “toxicity against CNS cancer cells (XF498)” value in the data set with CNS cancer cells (XF498) is listed as “mild toxicity”. The “Antioxidant IC50” value in [2] was over 100 µg/mL.

`COc1c(C)c(O)c(Cc2c(O)c(C)c(OC)c(C(=O)C(C)C)c2O)c(O)c1C(=O)C(C)C` [Compound C4, alpha kosin]: the CC50 in [3] was under 3.12 µg/mL. Besides, in the data set with MAC tumour cells, the “cytotoxic effects against MAC tumour cells” value is reported as “strong cytotoxic effects”. Moreover, in [5], the CC50 was under 3.12 µg/mL. The “Cytotoxicity EC50 U937 human macrophage” value with U937 human macrophage was under 3.12 µg/mL. Further, the “cell injuries to P. acnes (TEM micrograph)” value in the data set on P. acnes was “significant damage to P. acnes”. Also, in data set [1], the MIC is 1.9 µg/mL and 2.1 µM. Moreover, in data set [2] ((IC50 vit C / IC50 sample) x 1000), the “mg vitamin C equivalents/g dry weight” value is on record as 392 mg vitamin C equivalents/g dry weight. In [2], the “Antioxidant IC50” value was 5.05 µg/mL and the pIC50 is 4.98.

On to `Cc1c2oc3c(C)ccc(C(=O)N[C@@H]4C(=O)N[C@H](C(C)C)C(=O)N5CCC[C@H]5C(=O)N(C)CC(=O)N(C)[C@@H](C(C)C)C(=O)O[C@@H]4C)c3nc-2c(C(=O)N[C@@H]2C(=O)N[C@H](C(C)C)C(=O)N3CCC[C@H]3C(=O)N(C)CC(=O)N(C)[C@@H](C(C)C)C(=O)O[C@@H]2C)c(N)c1=O` [actinomycin D, reference compound] (I: T[dV]P[Sar][NMeV] / II: T[dV]P[Sar][NMeV]; ester I:1-I:C, II:1-II:C; linker I:N-II:N via Actinocin(9to1)), for which the CC50 in data set [3] and in data set [5] was 0.0045 µg/mL (≈ 0.00358 µM) throughout.

For `CC(=O)CCCCn1c(=O)c2c(ncn2C)n(C)c1=O` [pentoxifylline], the IL-8 concentration result in the data set on IL-8 is given as “no change”. The “inhibition of TNF a” value in the data set on TNF a is given as “Significant inhibition”.

For the compound `CN(C)[C@@H]1C(O)=C(C(N)=O)C(=O)[C@@]2(O)C(O)=C3C(=O)c4c(O)cccc4[C@@](C)(O)[C@H]3C[C@@H]12` [tetracycline, reference compound], the MIC in data set [1] was 3.1 µg/mL and 7 µM.

In the case of `O=C1O[C@H]([C@@H](O)CO)C(O)=C1O` [vitamin C, reference compound], in data set [2], the “Antioxidant IC50” value was determined as 1.98 µg/mL and the pIC50 is 4.95.

The values are drawn from patent EP2879647B1, “SKIN CARE” (University of Pretoria, priority 2012, dated 2014).
